# Columns and labels:
# Human recombinant MMP-9 = biological target: T1, Human recombinant MMP-9 (Homo sapiens, UniProt P14780); test: In vitro MMP inhibition analysis (fluorogenic peptide substrate cleavage), Ki; type: biochemical
# T1 construct: made in house; host or cells: MMP-9-transfected HT1080 cells (spent media)
# Protocol: (§1) Several compounds and salts were analyzed in an in vitro assay to determine their ability to inhibit the MMP cleavage of peptide substrates. Inhibition constant (Ki) were calculated from the assayed compound-MMP interactions.
# (§2) Human recombinant MMP-1, MMP-2, MMP-9, MMP-13, and MMP-14 were used in this assay. All enzymes were prepared in Assignee's laboratories following usual laboratory procedures. Protocols for the preparation and use of these enzymes are available in the scientific literature. See, e.g., Enzyme Nomenclature (Academic Press, San Diego, Calif., 1992) (and the citations therein). See also, Frije et al., J. Biol. Chem., 26(24), 16766-73 (1994).
# The MMP-9 proenzyme was purified by gelatin Sepharose chromatography from spent media of MMP-9-transfected HT1080 cells provided by Dr. Howard Welgus of Washington University (St. Louis, Mo.).
# (§3) All MMPs were activated using 4-aminophenylmercuric acetate (“APMA”, Sigma Chemical, St. Louis, Mo.) or trypsin. MMP-9 also was activated using human recombinant MMP-3 (purified in Assignee's laboratory following standard cloning and purification techniques).
# (§4) The following fluorogenic, methoxycoumarin-containing polypeptide substrate (I) was used in the MMP inhibition assays: MCA-ArgProLeuGlyLeuDpaAlaArgGluArgNH2 (I) “MCA” is 7-methoxycoumarin-4-yl acetyl. Substrate (I) was prepared Assignee's laboratory. In the absence of MMP inhibitory activity, the substrate is cleaved at the Gly-Leu peptide bond. This cleavage separates the highly fluorogenic peptide from the 2,4-dinitrophenyl quencher, thus resulting in increase of fluorescent intensity.
# (§5) The stock solutions of the assayed compounds and salts were prepared in […] (DMSO). These stock solutions were diluted in Buffer A (100 mM Tris-HCl, 100 mM NaCl, 10 mM CaCl2, 0.05% polyoxyethylene 23 lauryl ether, pH 7.5) to obtain solutions with different compound concentrations, i.e., assay solutions with different concentrations of the assayed […] compound. The experiment controls contained the same amount of Buffer A/DMSO as the assayed sample, but contained none of the tested compound or salt.
# (§6) The assays from which the Ki determinations were made were performed as follows. The assayed compound samples were incubated in separate wells of untreated white polystyrene plates (Nunc Nalgene International, Rochester, N.Y.), and analyzed on a Tecan SpectraFlour Plus plate reader. The excitation wavelength was 330 nm, and the emission wavelength—420 nm. All samples (assayed compounds and controls) were incubated in separate plate wells at room temperature for 1 hr in the presence of 4 μM of MMP substrate (I). In the absence of MMP inhibitory activity, substrate (I) was cleaved at the Gly-Leu bond resulting in an increase of relative fluorescence. Inhibition was observed as a reduced rate of this increase in relative fluorescence. […] This protocol is a modification of method by Knight et al., FEBS Lett., 296(3), 263-266 (1992). Apparent inhibitory constants were determined by non-linear regression of reaction velocity as a function of inhibitor and enzyme concentration using Morrison's equation, as described by Kuzmic, Anal. Biochem. 286, 45-50 (2000). Modifications were made in the non-linear regression method to allow a common control reaction rate and effective enzyme concentration to be shared between all dose-response relationships on a given assay plate. Since the substrate concentration was chosen to be at or below the Km, the apparent Ki's from this analysis were reported as Ki's without correction for the influence of substrate.
# The above protocols were used to determine Ki constants for the compounds in Examples 2-35 above. All Ki values in Table 1 are given in nM units.
# Human recombinant MMP-13 = biological target: T2, Human recombinant MMP-13 (Homo sapiens, UniProt P45452); test: as above; type: biochemical
# T2 construct: made in house; host or cells: baculovirus / insect cells
# Protocol: as §1, §2
# The MMP-13 was obtained as a proenzyme from a full-length cDNA clone using baculovirus, as described by V. A. Luckow, “Insect Cell Expression Technology,” Protein Engineering: Principles and Practice, pp. 183-218 (edited by J. L. Cleland et al., Wiley-Liss, Inc., 1996). The expressed proenzyme was first purified over a heparin agarose column, and then over a chelating zinc chloride column. The proenzyme was then activated by APMA for use in the assay. Further details on baculovirus expression systems may be found in, for example, Luckow et al., J. Virol., 67, 4566-79 (1993). See also, O'Reilly et al, Baculovirus Expression Vectors: A Laboratory Manual (W.H. Freeman and Co., New York, N.Y., 1992). See also, King et al., The Baculovirus Expression System: A Laboratory Guide (Chapman & Hall, London, England, 1992).
# as §3, §4, §5
# as §6, with “Modifications were made in the non-linear regression method to allow a common control reaction rate and effective enzyme concentration to be shared between all dose-response relationships on a given assay plate. Since the substrate concentration was chosen to be at or below the Km, the apparent Ki's from this analysis were reported as Ki's without correction for the influence of substrate.” left out
# T1 sequence (P14780 107-707 limits assumed): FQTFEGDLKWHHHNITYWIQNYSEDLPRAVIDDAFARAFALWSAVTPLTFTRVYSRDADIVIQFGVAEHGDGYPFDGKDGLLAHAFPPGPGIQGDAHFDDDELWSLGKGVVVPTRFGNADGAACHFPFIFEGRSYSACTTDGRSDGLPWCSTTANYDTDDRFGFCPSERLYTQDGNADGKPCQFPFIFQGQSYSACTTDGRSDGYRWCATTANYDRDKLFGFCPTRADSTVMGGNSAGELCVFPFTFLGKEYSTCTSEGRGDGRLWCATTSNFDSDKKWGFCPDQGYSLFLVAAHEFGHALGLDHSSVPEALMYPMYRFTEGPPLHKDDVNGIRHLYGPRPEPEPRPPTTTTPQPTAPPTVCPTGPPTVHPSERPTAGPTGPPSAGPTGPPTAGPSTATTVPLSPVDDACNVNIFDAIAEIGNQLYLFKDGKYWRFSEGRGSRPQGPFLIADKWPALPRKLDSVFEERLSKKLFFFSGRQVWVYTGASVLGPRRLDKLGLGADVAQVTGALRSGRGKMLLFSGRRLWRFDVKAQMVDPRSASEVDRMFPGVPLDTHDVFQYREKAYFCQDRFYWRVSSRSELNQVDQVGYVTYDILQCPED
Structure (SMILES),Ki (Human recombinant MMP-9; Table 1),Ki (Human recombinant MMP-13; Table 1),Ki (Human recombinant MMP-9; Table 2),Ki (Human recombinant MMP-13; Table 2)
O=C(NO)C1(S(=O)(=O)c2ccc(-c3cnc(CCC(F)(F)C(F)(F)F)cn3)cc2)CCOCC1 [Example 55],0.347 nM,0.222 nM,,
COCCN1CCC(C(=O)NO)(S(=O)(=O)c2ccc(-c3ccc(CCC(F)(F)C(F)(F)F)cc3)cc2)CC1 [Example 46],0.38 nM,0.11 nM,,
CCc1cnc(-c2ccc(S(=O)(=O)C3(C(=O)NO)CCOCC3)cc2)nc1 [Example 122],,,4.84 nM,1.56 nM
CCN1CCC(C(=O)NO)(S(=O)(=O)c2ccc(-c3cnc(CCC(C)(F)F)cn3)cc2)CC1 [Example 64],0.677 nM,0.296 nM,,
O=C(NO)C1(S(=O)(=O)c2ccc(-c3cnc(CCC(F)(F)C(F)(F)F)nc3)cc2)CCOCC1 [Example 142],,,76.6 nM,22.5 nM
O=C(NO)C1(S(=O)(=O)c2ccc(-c3cnc(CCC4CC4)cn3)cc2)CCOCC1 [Example 49],0.88 nM,0.71 nM,,
O=C(NO)C1(S(=O)(=O)c2ccc(-c3cnc(N4CCCCC4)cn3)cc2)CCOCC1 [Example 131],,,5.3 nM,2.04 nM
CCN1CCC(C(=O)NO)(S(=O)(=O)c2ccc(-c3ccc(-c4ccncc4)cc3)cc2)CC1 [Example 136],,,0.418 nM,0.021 nM
O=C(NO)C1(S(=O)(=O)c2ccc(-c3ccc(CCCC(F)F)cc3)cc2)CCOCC1 [Example 57],0.38 nM,0.04 nM,,
O=C(NO)C1(S(=O)(=O)c2ccc(-c3cnc(N4CCCC4)cn3)cc2)CCOCC1 [Example 138],,,1.04 nM,0.571 nM
O=C(NO)C1(S(=O)(=O)c2ccc(-c3ccc(-c4ccncc4)cc3)cc2)CCOCC1 [Example 141],,,0.198 nM,0.012 nM
O=C(NO)C1(S(=O)(=O)c2ccc(-c3ccc(OC(F)(F)C(F)F)cc3)cc2)CCOCC1 [Example 68],0.142 nM,0.0509 nM,,
O=C(NO)C1(S(=O)(=O)c2ccc(-c3ccc(-n4cncn4)cc3)cc2)CCOCC1 [Example 126],,,1.92 nM,0.048 nM
COCCN1CCC(C(=O)NO)(S(=O)(=O)c2ccc(-c3ccc(-c4ccccc4)cc3)cc2)CC1 [Example 152],,,0.09 nM,0.05 nM
O=C(NO)C1(S(=O)(=O)c2ccc(-c3noc(-c4ccc(F)cc4)n3)cc2)CCOCC1 [Example 134],,,5.25 nM,1.76 nM
CCc1csc(Nc2ccc(-c3ccc(S(=O)(=O)C4(C(=O)NO)CCOCC4)cc3)cc2)n1 [Example 124],,,191 nM,3.3 nM
O=C(NO)C1(S(=O)(=O)c2ccc(-c3cnc(C4CCCC4)cn3)cc2)CCOCC1 [Example 162],,,34 nM,0.95 nM
CCN1CCC(C(=O)NO)(S(=O)(=O)c2ccc(-c3ccc(-c4csc(C)n4)cc3)cc2)CC1 [Example 155],,,0.44 nM,0.17 nM
CCOCCOc1ccc(-c2ccc(S(=O)(=O)C3(C(=O)NO)CCOCC3)cc2)cc1 [Example 37],3.51 nM,0.028 nM,,
COCCN1CCC(C(=O)NO)(S(=O)(=O)c2ccc(-c3cnc(CCC(C)(F)F)cn3)cc2)CC1 [Example 65],0.375 nM,0.27 nM,,
CN1CCC(C(=O)NO)(S(=O)(=O)c2ccc(-c3ccc(OC(F)(F)C(F)F)cc3)cc2)CC1 [Example 146],,,0.48 nM,0.15 nM
CC(F)(F)CCc1cnc(-c2ccc(S(=O)(=O)C3(C(=O)NO)CCOCC3)cc2)cn1 [Example 60],0.623 nM,0.212 nM,,
COCCC(C(=O)NO)S(=O)(=O)c1ccc(-c2ccc(CCCC(F)(F)F)cc2)cc1 (stereo not drawn) [Example 47],2.8 nM,0.4 nM,,
O=C(NO)C1(S(=O)(=O)c2ccc(-c3ccc(CCC4CCCCC4)cn3)cc2)CCOCC1 [Example 129],,,8.56 nM,0.383 nM
O=C(NO)C1(S(=O)(=O)c2ccc(-c3ccc(CCC(F)(C(F)(F)F)C(F)(F)F)cn3)cc2)CCOCC1 [Example 133],,,35.2 nM,2.06 nM
CCCCOc1cnc(-c2ccc(S(=O)(=O)C3(C(=O)NO)CCOCC3)cc2)cn1 [Example 73],,,0.112 nM,0.028 nM
CCCCCc1ccc(-c2ccc(S(=O)(=O)C3(C(=O)NO)CCOCC3)cc2)cc1 [Example 75],,,1.01 nM,0.299 nM

# More lines, now with the values ahead:
Ki (Human recombinant MMP-9; Table 1),Ki (Human recombinant MMP-13; Table 1),Ki (Human recombinant MMP-9; Table 2),Ki (Human recombinant MMP-13; Table 2),Structure (SMILES)
,,6.62 nM,0.26 nM,O=C(NO)C1(S(=O)(=O)c2ccc(-c3ccc(-c4ccc(OC(F)(F)F)cc4)cn3)cc2)CCN(C2CC2)CC1 [Example 145]
0.16 nM,0.05 nM,,,CC(F)(F)CCc1ccc(-c2ccc(S(=O)(=O)C3(C(=O)NO)CCN(C4CC4)CC3)cc2)cc1 [Example 59]
0.258 nM,0.0403 nM,,,O=C(NO)C1(S(=O)(=O)c2ccc(-c3ccc(CCC(F)(F)C(F)(F)F)cn3)cc2)CCOCC1 [Example 36]
0.22 nM,0.05 nM,,,O=C(NO)C1(S(=O)(=O)c2ccc(-c3ccc(CCCC(F)(F)F)cn3)cc2)CCN(C2CC2)CC1 [Example 51]
0.642 nM,0.072 nM,,,O=C(NO)C1(S(=O)(=O)c2ccc(-c3ccc(CCCC(F)(F)F)cc3)cc2)CCOCC1 [Example 42]
3.54 nM,0.221 nM,,,CC(C)(C)N1CCC(C(=O)NO)(S(=O)(=O)c2ccc(-c3ccc(CCCC(F)(F)F)cc3)cc2)CC1 [Example 48]
,,0.38 nM,0.02 nM,O=CN1CCC(C(=O)NO)(S(=O)(=O)c2ccc(-c3ccc(CCCC(F)(F)F)cn3)cc2)CC1 [Example 159]
0.68 nM,0.13 nM,,,O=C(NO)C1(S(=O)(=O)c2ccc(-c3ccc(CCCC(F)(F)F)cc3)cc2)CCN(C2CC2)CC1 [Example 44]
0.102 nM,0.066 nM,,,O=C(NO)C1(S(=O)(=O)c2ccc(-c3ccc(OC(F)(F)C(F)F)cc3)cc2)CCN(C2CC2)CC1 [Example 40]
0.25 nM,0.3 nM,,,COCCN1CCC(C(=O)NO)(S(=O)(=O)c2ccc(-c3ccc(CCCC(F)(F)F)cn3)cc2)CC1 [Example 54]
0.22 nM,0.12 nM,,,O=C(NO)C1(S(=O)(=O)c2ccc(-c3ccc(CCC(F)(F)C(F)(F)F)cn3)cc2)CCN(C2CC2)CC1 [Example 50]
1.16 nM,0.46 nM,,,O=C(NO)C1(S(=O)(=O)c2ccc(-c3ccc(CCC(F)(F)C(F)(F)F)cc3)cc2)CCN(C2CC2)CC1 [Example 45]
